Tests used:
mTORC2 = mTORC2 (Homo sapiens, UniProt P42345); assay: In vitro mTORC2 kinase assay (GST-Akt Ser473 phosphorylation, immunoblot); type: biochemical; set-up: mTORC was isolated by co-immunoprecipitation using Flag antibody; made in house; host or cells: HEK 293T transfected with Flag-mLST8; conditions: for reduction of GST-Akt Ser473 phosphorylation by mTORC2: FIG. 6a
Experimental: After introducing Flag-mLST8 into a human cell line 293T, mTORC was isolated by co-immunoprecipitation using Flag antibody. In the in vitro mTORC2 kinase assay, the activity of the isolated mTORC2 was evaluated by measuring phosphorylation of GST-Akt Ser473, which is a selective substrate of mTORC2 by immunoblot analysis. In the control group in which Flag-mLST8 was not introduced, GST-Akt Ser473 phosphorylation was almost not measured. […] Therefore, it was judged that GST-Akt Ser473 phosphorylation measured in the in vitro mTORC2 kinase assay was generated by mTORC2. In order to evaluate the inhibitory effect of norathyriol and athyriol on mTORC2 activity, norathyriol or athyriol was pretreated for 15 minutes, and then in vitro mTORC2 kinase assay was carried out.
More specifically, the HEK 293T cells were cultured in a DMEM culture medium in which 10% heat inactivated FBS+1× Glutamax was added. 8×10^5 HEK 293T cells were seeded in a 100 mm culture dish, and then they were cultured for 1 day. After mixing 42 μl Lipofectamine, 21 μl plus reagent, and 21 μg Flag-mLST8 plasmid DNA to 1 ml OPTI-MEM, it was shaken at a room temperature for 25 minutes to prepare a transfection DNA mixture. The transfection DNA mixture was slowly treated on the cells drop by drop, and after culturing for 5 hours, the culture medium was replaced with a new culture medium. After additional culturing for 48 hours, the cells were […] with CHAPS buffer (50 mM HEPES (pH7.4), 100 mM NaCl, 2 mM EDTA, 0.3% CHAPS, 10 mM sodium pyrophosphate, 10 mM sodium β-glycerophosphate, 1 mM PMSF, 1 μg/ml leupeptin, 1 μg/ml pepstatin A, 10 nM aprotinin, 1 mM Na3VO4, 10 nM calyculin A), and centrifuged at 4° C. at 13,000 rpm for 10 minutes to obtain the supernatant and acquire cell lysate. The protein concentration of the cell lysate was determined with BCA protein assay kit (Thermo Fisher Scientific). After adding anti-Flag M2 affinity gel (50% slurry, Sigma) of 30 μl to the cell lysate of 1 mg, it was shaken at 4° C. for 3 hours. After that, affinity gel was washed with CHAPS buffer 3 times and kinase buffer (50 mM HEPES (pH7.5), 2 mM DTT, 10 mM MnCl2, 10 mM MgCl2) for washing once. After adding kinase buffer [-substrate-ATP] […] After that, kinase buffer (50 mM HEPES (pH7.5), 2 mM DTT, 10 mM MgCl2, 10 mM MnCl2, 1 mM ATP, 500 ng GST-AKT, 10 nM calyculin A) of 10 μl was added and shaken at 30° C. for 45 minutes to progress a kinase reaction. […] Ser473 phosphorylation of GST-AKT, which is a substrate of mTORC2, was measured by performing immunoblot analysis using AKT antibody (#4691, Cell signaling) and phospho Ser473 AKT antibody (#4060, Cell signalig). In order to measure the mTORC2 activity inhibitory effect by the compound, both the kinase buffer [-substrate-ATP] and the kinase buffer included the compound.

Pten KO mice = assay: Passive avoidance test in Pten KO mice; type: in vivo; conditions: FIG. 1b
Experimental: As Pten KO mice, Ptenf/f_cre/cre KO mice or Ptenf/f_cre/++ Het mice (KD) were obtained by mating Pten floxed/floxed mice and CAMKII-cre mice. DMSO or athyriol was intraperitoneally injected at 5 or 10 mg/kg for 2 weeks from the age of mice of 6 weeks, and a behavioral test was performed in 7 days after administration. Pten floxed/floxed mice were used as littermates of the same age as a normal control group.
A passive avoidance test was performed as described in Heo et al. (J. Ethnopharmacol. (2009) 122:20-27). After training the avoidance action by strong light three times a day, an electric foot shock (1 mA, 300 g test) was applied for 3 seconds in a dark room at the same time on the next day. After placing white mice in the same room in 24 hours after applying the shock, an avoidance response by light, that is, the time to move from a bright room to a dark room was measured, and it was dataficated for each group. Exactly after 24 hours of adaptation training, the mice were put back into the bright room and the latency time required to enter the dark room was measured for 720 seconds.

normal mice = assay: 3 chamber test in normal mice; type: in vivo; conditions: 5 mg/kg, sociability measurement-2 session, FIG. 14b
Experimental: 3-chamber test is a test to confirm sociability, social cognition, and social sexual preference, and it was tested by composing sessions 1 and 2. The experimental site was consisted of three chambers made of transparent acrylic walls with a small door and each chamber was length 50 cm×width 100 cm×height 50 cm. Through a cylindrical cage, the sense of smell and minimal contact of the test mice to the unfamiliar mouse were allowed. Prior to the test, the test mice were placed in an intermediate chamber and adapted for 5 minutes with both doors closed. The test was performed by dividing into sessions I and II. In the 3-chamber sociability measurement-1 session, an unfamiliar mouse met first was placed in a transparent box located at one end of the three rooms, and an empty transparent box of the same size was placed in the room located at the other side, and the target mouse was placed in the middle room, and then the time searching toward the counterpart within the social interaction zone was measured.
In order to verify this possibility, the efficacy of athyriol on memory ability and sociability of normal animals was investigated. […]

SMILES	inhibition at 20 µM (mTORC2; 20 μM, FIG. 6b)	inhibition at 40 µM (mTORC2; 40 μM, FIG. 6b)	memory ability in passive avoidance test (Pten KO mice; 5 mg/kg)	memory ability in passive avoidance test, level relative to control group (Pten KO mice; 10 mg/kg, % of the control group)	increase in ratio of searching time for familiar mice to searching time for unfamiliar mice compared to vehicle control (normal mice)	reduction of GST-Akt Ser473 phosphorylation by mTORC2 (mTORC2; 5 μM)	reduction of GST-Akt Ser473 phosphorylation by mTORC2 (mTORC2; 40 μM)	IC50 (mTORC2; in vitro mTORC2 kinase assay)
COc1cc(O)c2c(=O)c3cc(O)c(O)cc3oc2c1 [athyriol, 1,6,7-Trihydroxy-3-methoxy-9H-xanthen-9-on]	59%	67%	rather more excellent than the control group	89%	11%	–	–	–
O=c1c2cc(O)c(O)cc2oc2cc(O)cc(O)c12 [norathyriol, 1,3,6,7-tetrahydroxy-9H-xanthen-9-one]	–	46%	–	–	–	≥ 20%	50%	40 µM

From US20240366555A1, “SELECTIVE MTORC2 INHIBITOR AND USES THEREOF” (ALIAD BIOPHARMA, priority 2021, published 2024)
